According to patent publication US5254728A, “Complexes containing S(+)-phenyl alkanoic acids and α-hydroxyalkanoic” (priority 1990, dated 1993):

Tests used:
[1] = pH 9.5; cited from earlier work
[2] = in vivo

| tmax [2] [min] | Compound | stability [1] |
| --- | --- | --- |
| – | CC(O)C(=O)O (centres unmarked) [lactic acid] | not being stable |
| 20 | S(+)-ibuprofen-L-(+)-lactic acid complex | – |
